For this assay, the system named is obese mice. As to the kind of experiment: slimming effect of limonene in obese mice. The settings on record: obese mice after 12 weeks of high lipid diet, feed containing 0.5% of limonene ad libitum for 2 weeks. Type of assay: in vivo. Here is the method: Animal feed having a concentration of 0.5% in limonene corresponding to a daily dose of 0.6 g/kg of weight in humans. After 12 weeks of high lipid diet that caused obesity, mice were administered ad libitum, animal feed containing 0.5% of limonene for 2 weeks.

For `C=C(C)[C@H]1CC=C(C)CC1` [limonene], the “accumulation of lipids in the cells” value is listed as “preventing the accumulation of lipids”; the “reduction of serum triglycerides” value was “up to 47%”; the “size of both white and brown adipocytes” value is “decreasing the size”.
